From ChEMBL document CHEMBL1152994, “Plasmid-mediated carbapenem-hydrolyzing beta-lactamase KPC-2 in Klebsiella pneumoniae isolate from Greece” (2008) come the findings set out here.

In brackets after ≈: the same amount, converted by molar mass.

What is called MIC is the smallest concentration in the dilution series that meets the test's criterion for growth inhibition. Low readings indicate greater potency, high ones weaker potency.

In test [1] the test system is Escherichia coli. In words: Antibacterial activity against Escherichia coli J53 by E test method. It counts as functional.
Test [2] relates to Escherichia coli. Kind of test: Antibacterial activity against Escherichia coli J53 expressing Klebsiella pneumoniae Greece blaKPC-2 gene by E test method. It counts as functional.
Another test deals with Klebsiella pneumoniae. Kind of test: Antibacterial activity against Klebsiella pneumoniae Greece producing KPC-2 beta-lactamase by E test method. In kind it is functional.
The target in test [3] is T1, Class A carbapenemase (Klebsiella pneumoniae) (UniProt A9LM97).
T1 sequence (whole entry): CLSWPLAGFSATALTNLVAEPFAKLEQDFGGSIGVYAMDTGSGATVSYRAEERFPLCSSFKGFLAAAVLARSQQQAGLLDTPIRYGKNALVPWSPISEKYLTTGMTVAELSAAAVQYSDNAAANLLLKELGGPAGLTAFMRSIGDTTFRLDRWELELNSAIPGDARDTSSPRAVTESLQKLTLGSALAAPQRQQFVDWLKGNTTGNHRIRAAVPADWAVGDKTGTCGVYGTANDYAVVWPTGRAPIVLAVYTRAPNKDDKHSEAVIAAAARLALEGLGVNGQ
In words: Activity at Klebsiella pneumoniae Greece Carbapenem-Hydrolyzing-Lactamase KPC-2 assessed per mg of total protein by spectrophotometrically.

Turning to `CC1(C)S[C@@H]2[C@H](NC(=O)[C@H](N)c3ccc(O)cc3)C(=O)N2[C@H]1C(=O)O` [AMOXICILLIN], the minimum inhibitory concentration (MIC) was 4 µg/mL (≈ 10.9 µM) against Escherichia coli [1], more than 256 µg/mL against Escherichia coli [2] and more than 256 µg/mL in the test with Klebsiella pneumoniae.
Regarding `C[C@H]1[C@H](NC(=O)/C(=N\OC(C)(C)C(=O)O)c2csc(N)n2)C(=O)N1S(=O)(=O)O` [AZTREONAM], the minimum inhibitory concentration (MIC) is 16 µg/mL (≈ 36.7 µM) with Escherichia coli [2] and more than 256 µg/mL with Klebsiella pneumoniae.
Regarding `CO/N=C(\C(=O)N[C@@H]1C(=O)N2C(C(=O)[O-])=C(C[N+]3(C)CCCC3)CS[C@H]12)c1csc(N)n1` [CEFEPIME], the MIC with Escherichia coli [1] is 0.03 µg/mL (≈ 0.0624 µM); in the test with Escherichia coli [2] it was 1.5 µg/mL (≈ 3.12 µM); against Klebsiella pneumoniae, more than 256 µg/mL.
As to `CO/N=C(\C(=O)N[C@@H]1C(=O)N2C(C(=O)O)=C(COC(C)=O)CS[C@H]12)c1csc(N)n1` [CEFOTAXIME], the MIC against Escherichia coli [1] is 0.06 µg/mL (≈ 0.132 µM); against Escherichia coli [2], 4 µg/mL (≈ 8.78 µM); in the test on Klebsiella pneumoniae it was more than 32 µg/mL.
Regarding `CO[C@@]1(NC(=O)Cc2cccs2)C(=O)N2C(C(=O)O)=C(COC(N)=O)CS[C@@H]21` [CEFOXITIN], the MIC in the test on Escherichia coli [1] turned out to be 2 µg/mL (≈ 4.68 µM); in the test with Escherichia coli [2], 4 µg/mL (≈ 9.36 µM); in the test on Klebsiella pneumoniae, 64 µg/mL (≈ 150 µM).
Turning to `CC(C)(O/N=C(\C(=O)N[C@@H]1C(=O)N2C(C(=O)[O-])=C(C[n+]3ccccc3)CS[C@H]12)c1csc(N)n1)C(=O)O` [CEFTAZIDIME], the values for the minimum inhibitory concentration (MIC) against Escherichia coli [1], against Escherichia coli [2] and with Klebsiella pneumoniae were 0.06 µg/mL (≈ 0.11 µM), 4 µg/mL (≈ 7.32 µM) and more than 256 µg/mL, respectively.
For `CC(=O)OCC1=C(C(=O)O)N2C(=O)[C@@H](NC(=O)Cc3cccs3)[C@H]2SC1` [CEPHALOTHIN], in that order: 1 µg/mL (≈ 2.52 µM), more than 256 µg/mL and more than 256 µg/mL.
For `C[C@@H](O)[C@H]1C(=O)N2C(C(=O)O)=C(S[C@@H]3CN[C@H](C(=O)Nc4cccc(C(=O)O)c4)C3)[C@H](C)[C@H]12` [ERTAPENEM], the minimum inhibitory concentration (MIC) in the test with Escherichia coli [1] is 0.03 µg/mL (≈ 0.0631 µM); against Escherichia coli [2], 0.38 µg/mL (≈ 0.799 µM); in the test with Klebsiella pneumoniae, 12 µg/mL (≈ 25.2 µM). Moreover, the Activity in test [3] was determined as 0.05 µmol.
As for `C[C@@H](O)[C@H]1C(=O)N2C(C(=O)O)=C(SCCNC=N)C[C@H]12` [IMIPENEM ANHYDROUS], the minimum inhibitory concentration (MIC) against Escherichia coli [2] was determined as 1.5 µg/mL (≈ 5.01 µM); against Klebsiella pneumoniae it was 12 µg/mL (≈ 40.1 µM). In addition, the Activity in test [3] amounted to 0.2 µmol.
On to `C[C@@H](O)[C@H]1C(=O)N2C(C(=O)O)=C(S[C@@H]3CN[C@H](C(=O)N(C)C)C3)[C@H](C)[C@H]12` [MEROPENEM], for which the MIC against Escherichia coli [1] is 0.03 µg/mL (≈ 0.0782 µM); in the test with Escherichia coli [2], 0.38 µg/mL (≈ 0.991 µM); in the test with Klebsiella pneumoniae, 6 µg/mL (≈ 15.6 µM). The compound further returned an Activity in test [3] of 0.06 µmol.
`CCN1CCN(C(=O)N[C@@H](C(=O)N[C@@H]2C(=O)N3[C@@H]2SC(C)(C)[C@@H]3C(=O)O)c2ccccc2)C(=O)C1=O` [PIPERACILLIN]: the figures for the MIC with Escherichia coli [1], against Escherichia coli [2] and with Klebsiella pneumoniae were 1 µg/mL (≈ 1.93 µM), 128 µg/mL (≈ 247 µM) and more than 256 µg/mL, respectively.
With `CC1(C)S[C@@H]2[C@H](NC(=O)[C@H](C(=O)O)c3ccsc3)C(=O)N2[C@H]1C(=O)O` [TICARCILLIN], the figures for the MIC in the test on Escherichia coli [1], in the test with Escherichia coli [2] and against Klebsiella pneumoniae were 2 µg/mL (≈ 5.2 µM), more than 256 µg/mL and more than 256 µg/mL, respectively.
As for `CN(C)c1cc(NC(=O)CNC(C)(C)C)c(O)c2c1C[C@H]1C[C@H]3[C@H](N(C)C)C(O)=C(C(N)=O)C(=O)[C@@]3(O)C(O)=C1C2=O` [TIGECYCLINE], the minimum inhibitory concentration (MIC) amounted to 0.5 µg/mL (≈ 0.854 µM) against Escherichia coli [1], 0.5 µg/mL (≈ 0.854 µM) against Escherichia coli [2] and 3 µg/mL (≈ 5.12 µM) against Klebsiella pneumoniae.
In the case of COLISTIN, the MIC stood at 0.38 µg/mL in the test on Escherichia coli [1], 0.38 µg/mL in the test on Escherichia coli [2] and 128 µg/mL in the test on Klebsiella pneumoniae.
With GENTAMICIN, the minimal inhibitory concentration (MIC) with Escherichia coli [1] came out at 0.064 µg/mL; against Escherichia coli [2] it was 0.064 µg/mL; in the test on Klebsiella pneumoniae, 1.5 µg/mL.
